Where “and” joins values, the source holds several entries; their conditions need not be identical. Equal entries are not always repeated.
What was measured:
Assay in all cases: Cell viability assay for NSCLC lines
Format in all cases: cell-based, human
NCI-H1703 = conditions: NCI-H1703, 3 days
Description: (§1) Cell Viability Assay for NSCLC Lines. Cell viability was assessed using the Cell Titer-Glo Luminescent Cell Viability from Promega. The assay is a homogenous method of determining the number of viable cells in culture based on quantitation of the adenosine triphosphate (ATP) present, an indicator of metabolically active cells. The homogenous assay procedure involves adding the single reagent (CellTiter-Glo Reagent) directly to cells cultured in serum-supplemented medium. Cells were plated into a 96-well flat bottom plate (Costar Catalog Number 33595) at densities that were previously optimized for each cell line. The cells were incubated overnight in 5% CO2 at 37° C. The following day, compound dilutions were prepared and all concentrations were assayed in triplicate. The cells were incubated with Compound 1 (0.03 μM, 0.1 μM, 0.3 μM, 1 μM, 3 μM, 10 μM and 30 μM for NSCLC cells) in 5% CO2 at 37° C. for 3 days. After a 3-day incubation period, 100 μL of CellTiter-Glo reagent was added to each well for 2 minutes with shaking and further incubated for 10 minutes (no shaking) at room temperature to stabilize the signal. The luminescence was measured on the VICTOR X2 multilabel plate reader. The percent growth inhibition was calculated using the DMSO control in the same plate (no compound) response as 100% cell growth. The average values from triplicates were plotted to obtain IC50 values using software XLfit from IDBS. The formula used for determining IC50 in XLfit was model number 205, which utilizes a 4 Parameter Logistic Model or Sigmoidal Dose-Response Model to calculate the IC50 values. All IC50 values are reported as an average from either two independent experiments or a single experiment.

NCI-H2030 = conditions: NCI-H2030, 3 days
Description: as §1

NCI-H1563 = conditions: NCI-H1563, 3 days
Description: as §1

NCI-H28 = conditions: NCI-H28, 3 days
Description: as §1

NCI-H1299 = conditions: NCI-H1299, 3 days
Description: as §1

NCI-H1993 = conditions: NCI-H1993, 3 days
Description: as §1

HOP92 = conditions: HOP92, 3 days
Description: as §1

NCI-H2291 = conditions: NCI-H2291, 3 days
Description: as §1

NCI-H460 = conditions: NCI-H460, 3 days
Description: as §1

Calu-1 = conditions: Calu-1, 3 days
Description: as §1

NCI-H549 = conditions: NCI-H549, 3 days
Description: as §1

NCI-H520 = conditions: NCI-H520, 3 days
Description: as §1

NCI-H1568 = conditions: NCI-H1568, 3 days
Description: as §1

NCI-H1975 = conditions: NCI-H1975, 3 days
Description: as §1

NCI-H650 = conditions: NCI-H650, 3 days
Description: as §1

NCI-H596 = conditions: NCI-H596, 3 days
Description: as §1

NCI-H1838 = conditions: NCI-H1838, 3 days
Description: as §1

NCI-H441 = conditions: NCI-H441, 3 days
Description: as §1

NCI-H358 = conditions: NCI-H358, 3 days
Description: as §1

HOP62 = conditions: HOP62, 3 days
Description: as §1

NCI-H2444 = conditions: NCI-H2444, 3 days
Description: as §1

NCI-H23 = conditions: NCI-H23, 3 days
Description: as §1

NCI-H1693 = conditions: NCI-H1693, 3 days
Description: as §1

NCI-H1734 = conditions: NCI-H1734, 3 days
Description: as §1

Calu-3 = conditions: Calu-3, 3 days
Description: as §1

NCI-H1395 = conditions: NCI-H1395, 3 days
Description: as §1

NCI-H2110 = conditions: NCI-H2110, 3 days
Description: as §1

NCI-H838 = conditions: NCI-H838, 3 days
Description: as §1

NCI-H1755 = conditions: NCI-H1755, 3 days
Description: as §1

SK-LU-1 = conditions: SK-LU-1, 3 days
Description: as §1

NCI-H647 = conditions: NCI-H647, 3 days
Description: as §1

NCI-H226 = conditions: NCI-H226, 3 days
Description: as §1

Calu-6 = conditions: Calu-6, 3 days
Description: as §1

NCI-H2009 = conditions: NCI-H2009, 3 days
Description: as §1

NCI-H1792 = conditions: NCI-H1792, 3 days
Description: as §1

In the case of CO[C@H]1CC[C@H](N2C(=O)CNc3ncc(-c4ccc(C(C)(C)O)nc4)nc32)CC1 [Compound 1, 7-(6-(2-hydroxypropan-2-yl)pyridin-3-yl)-1-((1r,4r)-4-methoxycyclohexyl)-3,4-dihydropyrazino-[2,3-b]pyrazin-2(1H)-one], the IC50 (NCI-H1703) is reported as 920 nM, the IC50 (NCI-H2030) is reported as 2230 nM and the IC50 (NCI-H1563) is reported as > 30000 nM. For the same molecule, the IC50 (NCI-H28) was > 30000 nM, the IC50 (NCI-H1299) was 1230 nM and the IC50 (NCI-H1993) was 500 nM. The IC50 (HOP92) was > 30000 nM, the IC50 (NCI-H2291) was > 30000 nM and the IC50 (NCI-H460) was 370 nM. For the same molecule, the IC50 (Calu-1) was 4740 nM, the IC50 (NCI-H549) was 770 nM and the IC50 (NCI-H520) was 499 nM and 500 nM. For the same molecule, the IC50 (NCI-H1568) was 226 nM, the IC50 (NCI-H1975) was 960 nM and the IC50 (NCI-H650) was > 30000 nM. For the same molecule, the IC50 (NCI-H596) was 2200 nM, the IC50 (NCI-H1838) was > 30000 nM and the IC50 (NCI-H441) was > 30000 nM. It also gave an IC50 (NCI-H358) of 1420 nM, an IC50 (HOP62) of 2010 nM and an IC50 (NCI-H2444) of 778 nM. For the same molecule, the IC50 (NCI-H23) was 2210 nM, the IC50 (NCI-H1693) was 1580 nM and the IC50 (NCI-H1734) was 1550 nM. For the same molecule, the IC50 (Calu-3) was 302 nM, the IC50 (NCI-H1395) was 600 nM and the IC50 (NCI-H2110) was 456 nM. The IC50 (NCI-H838) was 390 nM, the IC50 (NCI-H1755) was 3030 nM and the IC50 (SK-LU-1) was 1440 nM. For the same molecule, the IC50 (NCI-H647) was 1360 nM, the IC50 (NCI-H226) was 1750 nM and the IC50 (Calu-6) was 4520 nM. For the same molecule, the IC50 (NCI-H2009) was 26000 nM and the IC50 (NCI-H1792) was 540 nM.

From patent US9493466B2, “Treatment of cancer with TOR kinase inhibitors” (Signal Pharmaceuticals, LLC, priority 2011, dated 2016)
